Experimental data published in ChEMBL document CHEMBL2434896, “Carbonic anhydrase inhibitors. Synthesis of heterocyclic 4-substituted pyridine-3-sulfonamide derivatives and their inhibition of the human cytosolic isozymes I and II and transmembrane tumor-associated isozymes IX and XII” (Eur J Med Chem, 2013).
The source made the active and inactive calls. The rule behind the calls is not given here.

Tests used:
DU-145 = experiment: Growth inhibition of human DU145 cells at 10 uM after 48 hrs by sulforhodamine B assay; format: functional
OVCAR-5 = experiment: Growth inhibition of human OVCAR5 cells at 10 uM after 48 hrs by sulforhodamine B assay; format: functional
Hs-578T = experiment: Growth inhibition of human Hs 578T cells at 10 uM after 48 hrs by sulforhodamine B assay; format: functional
MDA-MB-231 = experiment: Growth inhibition of human MDA-MB-231 cells at 10 uM after 48 hrs by sulforhodamine B assay; format: functional
PC-3 = experiment: Growth inhibition of human PC3 cells at 10 uM after 48 hrs by sulforhodamine B assay; format: functional; details: PC-3, 48 h, read-out: GI
NCI-H460 = experiment: Growth inhibition of human NCI-H460 cells at 10 uM after 48 hrs by sulforhodamine B assay; format: functional
A498 = experiment: Growth inhibition of human A498 cells at 10 uM after 48 hrs by sulforhodamine B assay; format: functional
Carbonic anhydrase 9 = Carbonic anhydrase 9 (Homo sapiens, UniProt Q16790); experiment: Inhibition of human carbonic anhydrase 9 after 15 mins by stopped flow CO2 hydration assay
K562 = experiment: Growth inhibition of human K562 cells at 10 uM after 48 hrs by sulforhodamine B assay; format: functional; details: K562, 48 h, read-out: GI
SF-539 = experiment: Growth inhibition of human SF539 cells at 10 uM after 48 hrs by sulforhodamine B assay; format: functional; details: SF-539, 48 h, read-out: GI
UO-31 = experiment: Growth inhibition of human UO31 cells at 10 uM after 48 hrs by sulforhodamine B assay; format: functional; details: UO-31, 48 h, read-out: GI
NCI-H226 = experiment: Growth inhibition of human NCI-H226 cells at 10 uM after 48 hrs by sulforhodamine B assay; format: functional; details: NCI-H226, 48 h, read-out: GI
OVCAR-3 = experiment: Growth inhibition of human OVCAR3 cells at 10 uM after 48 hrs by sulforhodamine B assay; format: functional
CAKI-1 = experiment: Growth inhibition of human CAKI-1 cells at 10 uM after 48 hrs by sulforhodamine B assay; format: functional
SF-295 = experiment: Growth inhibition of human SF295 cells at 10 uM after 48 hrs by sulforhodamine B assay; format: functional; details: SF-295, 48 h, read-out: GI
SK-MEL-2 = experiment: Growth inhibition of human SK-MEL-2 cells at 10 uM after 48 hrs by sulforhodamine B assay; format: functional
ACHN = experiment: Growth inhibition of human ACHN cells at 10 uM after 48 hrs by sulforhodamine B assay; format: functional
OVCAR-4 = experiment: Growth inhibition of human OVCAR4 cells at 10 uM after 48 hrs by sulforhodamine B assay; format: functional; details: OVCAR-4, 48 h, read-out: GI
MOLT-4 = experiment: Growth inhibition of human MOLT4 cells at 10 uM after 48 hrs by sulforhodamine B assay; format: functional; details: MOLT-4, 48 h, read-out: GI
IGROV-1 = experiment: Growth inhibition of human IGROV1 cells at 10 uM after 48 hrs by sulforhodamine B assay; format: functional
Malme-3M = experiment: Growth inhibition of human MALME-3M cells at 10 uM after 48 hrs by sulforhodamine B assay; format: functional
TK-10 = experiment: Growth inhibition of human TK10 cells at 10 uM after 48 hrs by sulforhodamine B assay; format: functional
CCRF-CEM = experiment: Growth inhibition of human CCRF-CEM cells at 10 uM after 48 hrs by sulforhodamine B assay; format: functional; details: read-out: GI
SK-OV-3 = experiment: Growth inhibition of human SKOV3 cells at 10 uM after 48 hrs by sulforhodamine B assay; format: functional
SNB-75 = experiment: Growth inhibition of human SNB75 cells at 10 uM after 48 hrs by sulforhodamine B assay; format: functional
UACC-62 = experiment: Growth inhibition of human UACC62 cells at 10 uM after 48 hrs by sulforhodamine B assay; format: functional; details: UACC-62, 48 h, read-out: GI
SK-MEL-5 = experiment: Growth inhibition of human SK-MEL-5 cells at 10 uM after 48 hrs by sulforhodamine B assay; format: functional
M14 = experiment: Growth inhibition of human M14 cells at 10 uM after 48 hrs by sulforhodamine B assay; format: functional
COLO 205 = experiment: Growth inhibition of human COLO205 cells at 10 uM after 48 hrs by sulforhodamine B assay; format: functional
RXF 393 = experiment: Growth inhibition of human RXF393 cells at 10 uM after 48 hrs by sulforhodamine B assay; format: functional
MDA-MB-435 = experiment: Growth inhibition of human MDA-MB-435 cells at 10 uM after 48 hrs by sulforhodamine B assay; format: functional; details: MDA-MB-435, 48 h, read-out: GI
NCI-H322M = experiment: Growth inhibition of human NCI-H322M cells at 10 uM after 48 hrs by sulforhodamine B assay; format: functional
SR = experiment: Growth inhibition of human SR cells at 10 uM after 48 hrs by sulforhodamine B assay; format: functional; details: read-out: GI
SN12C = experiment: Growth inhibition of human SN12C cells at 10 uM after 48 hrs by sulforhodamine B assay; format: functional; details: read-out: GI
HCC 2998 = experiment: Growth inhibition of human HCC2998 cells at 10 uM after 48 hrs by sulforhodamine B assay; format: functional
HCT-116 = experiment: Growth inhibition of human HCT116 cells at 10 uM after 48 hrs by sulforhodamine B assay; format: functional
MDA-MB-468 = experiment: Growth inhibition of human MDA-MB-468 cells at 10 uM after 48 hrs by sulforhodamine B assay; format: functional; details: MDA-MB-468, 48 h, read-out: GI
SF-268 = experiment: Growth inhibition of human SF268 cells at 10 uM after 48 hrs by sulforhodamine B assay; format: functional
T47D = experiment: Growth inhibition of human T47D cells at 10 uM after 48 hrs by sulforhodamine B assay; format: functional; details: read-out: GI
LOX IMVI = experiment: Growth inhibition of human LOXIMVI cells at 10 uM after 48 hrs by sulforhodamine B assay; format: functional; details: read-out: GI
BT-549 = experiment: Growth inhibition of human BT549 cells at 10 uM after 48 hrs by sulforhodamine B assay; format: functional
MCF7 = experiment: Growth inhibition of human MCF7 cells at 10 uM after 48 hrs by sulforhodamine B assay; format: functional; details: MCF7, 48 h, read-out: GI
SW-620 = experiment: Growth inhibition of human SW620 cells at 10 uM after 48 hrs by sulforhodamine B assay; format: functional
786-0 = experiment: Growth inhibition of human 786-0 cells at 10 uM after 48 hrs by sulforhodamine B assay; format: functional
OVCAR-8 = experiment: Growth inhibition of human OVCAR8 cells at 10 uM after 48 hrs by sulforhodamine B assay; format: functional
HOP-92 = experiment: Growth inhibition of human HOP92 cells at 10 uM after 48 hrs by sulforhodamine B assay; format: functional
U-251 = experiment: Growth inhibition of human U251 cells at 10 uM after 48 hrs by sulforhodamine B assay; format: functional; details: U-251, 48 h, read-out: GI

## NS(=O)(=O)c1cnccc1N1CCN(c2ccc(Cl)cc2)CC1
DU-145
  growth inhibition (GI): inactive
OVCAR-5
  growth inhibition (GI): inactive
Hs-578T
  growth inhibition (GI): inactive
MDA-MB-231; MDA-MB-231, 48 h, read-out: GI
  inhibition of growth at 10 µM: 7%
PC-3
  inhibition of growth at 10 µM: 8%
NCI-H460
  growth inhibition (GI): inactive
A498
  growth inhibition (GI): inactive
Carbonic anhydrase 9
  Ki: 135 nM
K562
  inhibition of growth at 10 µM: 28%
SF-539
  inhibition of growth at 10 µM: 8%
UO-31
  inhibition of growth at 10 µM: 20%
NCI-H226
  inhibition of growth at 10 µM: 13%
OVCAR-3
  growth inhibition (GI): inactive
CAKI-1; CAKI-1, 48 h, read-out: GI
  inhibition of growth at 10 µM: 15%
SF-295
  inhibition of growth at 10 µM: 14%
SK-MEL-2
  growth inhibition (GI): inactive
ACHN; read-out: GI
  inhibition of growth at 10 µM: 6%
OVCAR-4
  inhibition of growth at 10 µM: 28%
MOLT-4
  inhibition of growth at 10 µM: 25%
IGROV-1; IGROV-1, 48 h, read-out: GI
  inhibition of growth at 10 µM: 10%
Malme-3M
  growth inhibition (GI): inactive
TK-10
  growth inhibition (GI): inactive
CCRF-CEM
  inhibition of growth at 10 µM: 17%
SK-OV-3
  growth inhibition (GI): inactive
SNB-75
  growth inhibition (GI): inactive
UACC-62
  inhibition of growth at 10 µM: 16%
SK-MEL-5; SK-MEL-5, 48 h, read-out: GI
  inhibition of growth at 10 µM: 28%
M14; M14, 48 h, read-out: GI
  inhibition of growth at 10 µM: 1%
COLO 205
  growth inhibition (GI): inactive
RXF 393
  growth inhibition (GI): inactive
MDA-MB-435
  inhibition of growth at 10 µM: 1%
NCI-H322M; read-out: GI
  inhibition of growth at 10 µM: 11%
SR
  inhibition of growth at 10 µM: 11%
SN12C
  inhibition of growth at 10 µM: 5%
HCC 2998
  growth inhibition (GI): inactive
HCT-116; HCT-116, 48 h, read-out: GI
  inhibition of growth at 10 µM: 5%
MDA-MB-468
  inhibition of growth at 10 µM: 31%
SF-268
  growth inhibition (GI): inactive
T47D
  inhibition of growth at 10 µM: 32%
LOX IMVI
  inhibition of growth at 10 µM: 4%
BT-549
  growth inhibition (GI): inactive
MCF7
  inhibition of growth at 10 µM: 7%
SW-620
  growth inhibition (GI): inactive
786-0
  growth inhibition (GI): inactive

## COc1ccccc1N1CCN(c2ccncc2S(N)(=O)=O)CC1
DU-145
  growth inhibition (GI): inactive
OVCAR-5; OVCAR-5, 48 h, read-out: GI
  inhibition of growth at 10 µM: 2%
Hs-578T
  growth inhibition (GI): inactive
MDA-MB-231
  growth inhibition (GI): inactive
PC-3
  inhibition of growth at 10 µM: 10%
NCI-H460
  growth inhibition (GI): inactive
A498
  growth inhibition (GI): inactive
Carbonic anhydrase 9
  Ki: 652 nM
K562
  inhibition of growth at 10 µM: 9%
SF-539
  inhibition of growth at 10 µM: 5%
UO-31
  inhibition of growth at 10 µM: 10%
NCI-H226
  inhibition of growth at 10 µM: 3%
OVCAR-3
  growth inhibition (GI): inactive
CAKI-1
  growth inhibition (GI): inactive
SF-295
  inhibition of growth at 10 µM: 3%
SK-MEL-2; SK-MEL-2, 48 h, read-out: GI
  inhibition of growth at 10 µM: 5%
OVCAR-8
  growth inhibition (GI): inactive
ACHN
  growth inhibition (GI): inactive
OVCAR-4
  inhibition of growth at 10 µM: 2%
MOLT-4
  inhibition of growth at 10 µM: 20%
HOP-92
  growth inhibition (GI): inactive
IGROV-1
  growth inhibition (GI): inactive
Malme-3M
  growth inhibition (GI): inactive
CCRF-CEM
  inhibition of growth at 10 µM: 7%
SK-OV-3
  growth inhibition (GI): inactive
SNB-75; SNB-75, 48 h, read-out: GI
  inhibition of growth at 10 µM: 10%
UACC-62
  inhibition of growth at 10 µM: 3%
SK-MEL-5
  growth inhibition (GI): inactive
M14
  growth inhibition (GI): inactive
COLO 205
  growth inhibition (GI): inactive
RXF 393
  growth inhibition (GI): inactive
MDA-MB-435
  inhibition of growth at 10 µM: 2%
NCI-H322M
  growth inhibition (GI): inactive
SR
  inhibition of growth at 10 µM: 17%
SN12C
  inhibition of growth at 10 µM: 11%
HCC 2998
  growth inhibition (GI): inactive
HCT-116
  growth inhibition (GI): inactive
MDA-MB-468
  inhibition of growth at 10 µM: 2%
SF-268
  growth inhibition (GI): inactive
T47D
  inhibition of growth at 10 µM: 2%
LOX IMVI
  inhibition of growth at 10 µM: 2%
BT-549
  growth inhibition (GI): inactive
MCF7
  inhibition of growth at 10 µM: 3%
U-251
  inhibition of growth at 10 µM: 1%
SW-620
  growth inhibition (GI): inactive
786-0; 786-0, 48 h, read-out: GI
  inhibition of growth at 10 µM: 3%
